Laboratory results from patent publication US20220177446A1, “ALKYNE COMPOUNDS AS IRAK INHIBITORS, PREPARATION METHODS AND MEDICINAL USES THEREOF” (Eternity Bioscience Inc., priority 2020, published 2022).
Like-named read-outs stand apart in the source and are kept apart here.

Experiments:
CYP2D6 = molecular target: T1, CYP2D6 (Homo sapiens, UniProt P10635); assay: In vitro study for inhibiting cytochrome P450 (CYP) 2D6 using human liver microsomes; format: in vitro ADME; conditions: human liver microsomes 0.1 mg/ml, probe substrate dextromethorphan 4 μM, 30 min at 37° C.; read-out: IC50 of inhibition on CYP2D6
T1 construct: tissue Corning Co, LTD; host or cells: human liver microsomes
T1 sequence (P10635 whole entry): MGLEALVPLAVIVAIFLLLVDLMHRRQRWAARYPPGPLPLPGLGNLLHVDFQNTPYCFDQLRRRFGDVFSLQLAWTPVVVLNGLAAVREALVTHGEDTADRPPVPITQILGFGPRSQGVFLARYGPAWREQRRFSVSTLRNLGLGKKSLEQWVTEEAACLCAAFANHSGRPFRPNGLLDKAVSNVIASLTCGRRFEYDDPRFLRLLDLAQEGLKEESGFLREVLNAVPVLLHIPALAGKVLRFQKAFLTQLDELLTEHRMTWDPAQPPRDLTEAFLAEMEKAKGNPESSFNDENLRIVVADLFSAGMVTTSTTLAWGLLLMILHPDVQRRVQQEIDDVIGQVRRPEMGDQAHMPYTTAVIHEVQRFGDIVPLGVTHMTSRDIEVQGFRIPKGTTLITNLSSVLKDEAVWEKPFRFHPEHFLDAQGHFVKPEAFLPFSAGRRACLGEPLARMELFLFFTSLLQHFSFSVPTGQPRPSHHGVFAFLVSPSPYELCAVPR
Procedure: Potassium phosphate buffer ([…] from Sangon Biotech. Dilute 20×PBS to 100 mM PBS buffer. The stock solutions of NADPH was 5 mM and the final concentration in the incubation system was 1 mM. The stock solution of MgCl2 were 7.5 mM and t the final concentration in the incubation system was 3 mM.
1.1 Preparation of probe substrate solution: The stock solutions of probe substrates of dextromethorphan (Sigma Cat No. D9684) was prepared by using DMSO and the final concentration in incubation system was 4 μM.
1.2 Preparation of selective inhibitors solution: The 30 mM stock solutions of inhibitor of CYP isoforms of Quinidine (Sigma, Q0750) was prepared by using DMSO and the final concentration in incubation system were 30, 10, 3, 1, 0.3, 0.03, 0.003 μM.
1.3 Preparation of test compound 5 and 6 solution: The 30 mM test compound 5 and 6 solutions were prepared by using DMSO and the final concentration in incubation system were 30, 10, 3, 1, 0.3, 0.03, 0.003 μM.
1.4 Human liver microsomes (HLM) were purchased by Corning Co, LTD. Diluted the HLM into 0.25 mg/ml and the final concentration was 0.1 mg/ml.
Added 20 μL working solutions of test compound 5 or 6 or selective inhibitors into a 96-well plate. Then added 40 μL of the HLM working solution and 20 μL of the substrate working solution. […] Samples are now ready for LC/MS/MS analysis.

[1] = molecular target: T2, full length human IRAK4 protein (Homo sapiens, UniProt Q9NWZ3); assay: IRAK4 Biochemical Assay (Promega ADP-Glo IRAK4 Kinase Enzyme System); conditions: 3 nM enzyme, 250 μM ATP; for IC50: 2 μM MBP, 60 min at room temperature; for IRAK4 Biochemical Assay Max Inhibition (%): maximum inhibition
T2 construct: Purified full length human IRAK4 protein; purchased Signal Chem I12-10G-125
T2 sequence (Q9NWZ3 1-460): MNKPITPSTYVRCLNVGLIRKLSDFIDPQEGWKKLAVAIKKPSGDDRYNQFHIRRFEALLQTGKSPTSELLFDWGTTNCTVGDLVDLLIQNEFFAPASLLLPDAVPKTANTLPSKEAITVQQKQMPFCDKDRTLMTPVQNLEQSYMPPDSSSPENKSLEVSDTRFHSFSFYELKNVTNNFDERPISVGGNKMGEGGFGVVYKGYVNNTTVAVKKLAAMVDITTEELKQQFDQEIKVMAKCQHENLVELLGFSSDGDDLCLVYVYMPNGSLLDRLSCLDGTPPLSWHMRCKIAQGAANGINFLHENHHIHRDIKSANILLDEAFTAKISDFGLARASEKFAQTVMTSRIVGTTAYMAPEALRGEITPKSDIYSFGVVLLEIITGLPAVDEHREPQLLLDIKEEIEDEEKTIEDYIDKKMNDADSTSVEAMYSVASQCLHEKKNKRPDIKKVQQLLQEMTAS
Procedure: For the routine compound screening, an IRAK4 kinase assay was performed as follows using Promega ADP-Glo IRAK4 Kinase Enzyme System (Promega, Cat #2198-AD). Purified full length human IRAK4 protein (Signal Chem; Cat #I12-10G-125) was diluted to a concentration 6 nM in assay buffer (25 mM MOPS, pH 7.2, 12.5 mM β-glycerol-phosphate, 25 mM MgCl2, 5 mM EGTA, 2 mM EDTA, 0.0025% Brij-35, add 0.25 mM DTT to Kinase Assay Buffer prior to use) containing IRAK4 inhibitor at 2× the final concentration in 0.4% DMSO. The reaction was performed in PerkinElmer Proxiplate-384 plus white plate (Fisher Scientific, Cat #50-905-2761) and started by the addition of an equal volume of the assay buffer containing 4 μM native swine myelin basic protein (MBP) and 500 μM ATP to achieve a final concentration of 3 nM enzyme, 2 μM MBP, 250 μM ATP, 1× compound, and 0.2% DMSO. The kinase reaction was allowed to run for 60 min at room temperature (25-27° C.), then 5 μL of ADP-Glo was added to the reaction in each well followed by 40 minutes-incubation at RT. To detect converted […], 10 μL Detection Buffer was added into each well and Incubate at RT in dark for 30 minutes. Finally, luminescence was read using Tecan with 1000 ms of integration time. The luminescent signal positively correlates with ADP amount and kinase activity. Data was analyzed by GraphPad Prism and IC50 was calculated using function log(inhibitor) vs. response—Variable slope (four parameters). Percentage of inhibition was calculated as below:
(§1) % inhibition=(1−(Reading(Sample)−Reading(Negative Control))/(Reading(Positive Control)−Reading(Negative Control)))×100%
The 0% inhibition value comes from the Reading of Positive Control wells having 0 nM compound. The 100% inhibition value comes from the Reading of Negative Control wells having no IRAK4 kinase.

IRAK4 = molecular target: T3, IRAK4 (Homo sapiens, UniProt Q9NWZ3); assay: IRAK4 Human PBMC TNFα Cell Based Assay (AlphaLISA); conditions: TNFα measured
T3 construct: host or cells: human peripheral blood mononuclear cells (PBMCs)
T3 sequence (Q9NWZ3 1-460): T2 sequence (Q9NWZ3 1-460)
Procedure: In this assay, serially diluted compounds were incubated with 1×10^4 human peripheral blood mononuclear cells (PBMCs) from STEMCELL (Cat #70025.1) per well of 384-well plate (Fisher Scientific; 50-905-2761) and cultured with TexMACS medium (Miltenyi, Cat #130-097-196), stimulated by R848 (0.5 μM) or IL-1β (10 ng/ml). Plates were covered with lids and incubated for 4 h (R848, Fisher Scientific, Cat #NC9801605) or 24 h (IL-1β, Fisher Scientific, Cat #ENRIL1BI) at 37° C. in a humidified tissue-culture incubator. After a brief centrifugation at 1000 rpm for 5 minutes, 5 μl of culture medium was used for the measurement of the TNFα amount using TNFα (human) AlphaLISA Detection Kit (PerkinElmer, Cat #AL208C) according to manufacturer's protocol. A biotinylated anti-TNFα antibody binds to the Streptavidin-coated Donor beads while another anti-TNFα antibody is conjugated to AlphaLISA Acceptor beads. In the presence of the TNFα, the beads come into close proximity. The excitation of the Donor beads causes the release of singlet oxygen molecules that triggers a cascade of energy transfer in the Acceptor beads, resulting in a sharp peak of light emission at 615 nm. AlphaLISA assay plates were read using PHERAstar. Percentage of inhibition was calculated as below:
as §1
The 0% inhibition value comes from the Reading of Positive Control wells having 0 nM compound. The 100% inhibition value comes from the Reading of Negative Control wells having no R848 or IL-1β.

[2] = human PBMCs stimulated by IL-1β (10 ng/ml), 24 h, read-out: IRAK4 PBMC AlphaLISA IL-1β (IC50)
[3] = human PBMCs stimulated by R848 (0.5 μM), 4 h, read-out: IRAK4 PBMC AlphaLISA R848 (IC50)

IC50 (CYP2D6)	IC50 [1]	IRAK4 Biochemical Assay Max Inhibition (%) [1]	IC50 (IRAK4; [2])	IC50 (IRAK4; [3])	SMILES
> 30 µM	6.2 nM	100.0%	2.2 nM	0.7 nM	CC[C@@H]1[C@H](F)C(=O)N[C@@H]1COc1ncc(C#CCN(C)C)c2cc(C(N)=O)c(OC)cc12 [Example 5, 4-(3-(dimethylamino)prop-1-yn-1-yl)-1-(((2S,3S,4S)-3-ethyl-4-fluoro-5-oxopyrrolidin-2-yl)methoxy)-7-methoxyisoquinoline-6-carboxamide]
13.7 µM	14.5 nM	100.0%	1.3 nM	1 nM	CC[C@@H]1[C@H](F)C(=O)N[C@@H]1COc1ncc(C#CCOC)c2cc(C(N)=O)c(OC)cc12 [Example 6, 1-(((2S,3S,4S)-3-ethyl-4-fluoro-5-oxopyrrolidin-2-yl)methoxy)-7-methoxy-4-(3-methoxyprop-1-yn-1-yl)isoquinoline-6-carboxamide]
